Assay: gradient 5% acetonitrile 3 min, to 50% in 2 min, to 85% in 15 min, held 3 min, 100 µL/min
Details: column: Zorbax Extend-C18 2.1 x 50 mm; eluents: water / acetonitrile, 0.1% formic acid
How it was run: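 Standards, all pure, were combined into mixtures of ~100 molecules and run at 100 μL/min on a Zorbax Extend-C18 column (2.1 × 50 mm, 1.8 μm) with water and acetonitrile, each containing 0.1% formic acid. A coupled quadrupole time-of-flight mass spectrometer operated in positive and negative ionization mode. Retention time values come from computationally picked adduct peaks, each inspected manually.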

With `Cc1cc(Cl)ccc1NC(=O)C1CCN(C(=O)c2ncn3c2COC(c2ccc(F)cc2)C3)CC1` (stereo not given) as the compound, how does the RP-LC retention time read?
The RP-LC retention time was 871 s.

With `Clc1ccc(OCCSc2nnc(-c3ccc4c(c3)OCO4)o2)cc1` as the compound, how does the RP-LC retention time read?
Its RP-LC retention time is 1130 s.

Which RP-LC retention time does the source give for `Cc1noc2ncn(CC(=O)NCc3ccc(Cl)cc3)c(=O)c12` here?
The RP-LC retention time was 769 s.

With `CN(C)c1ccc(CNC(=O)c2nnc(-c3ccc(S(=O)(=O)N4CCCCC4)cc3)o2)cc1` as the compound, how does the RP-LC retention time read?
Its RP-LC retention time is 754 s.

For `O=C(CCCn1c(=O)c2cccn2c2ccccc21)N1CCN(c2ccccn2)CC1`, which RP-LC retention time is on record?
Its RP-LC retention time is 625 s.

For `Cc1ccc(Cl)cc1NC(=O)N1CCc2nc(-c3ccc(F)cc3)ncc2C1`, which RP-LC retention time is on record?
Its RP-LC retention time is 1030 s.

Which RP-LC retention time does the source give for `COCCNc1c(-c2ccccc2)nc2sc(C(=O)NC(C)C)c(C)n12` here?
Its RP-LC retention time is 749 s.

With `COc1ccc(Cl)cc1NC(=O)N1CCN(C2=CC3=NC(C)CN3C=N2)CC1` (stereo not given) as the compound, how does the RP-LC retention time read?
The RP-LC retention time was 664 s.

With `CC(C)CCNC(=O)c1cc2n(n1)CC(C)(C(=O)NCc1ccc(F)cc1)N(C)C2=O` (stereo not given) as the compound, how does the RP-LC retention time read?
Its RP-LC retention time is 770 s.

For `COc1ccc(-c2nc(NCCN3CCCCC3C)c3ccccc3n2)cc1` (stereo not given), which RP-LC retention time is on record?
Its RP-LC retention time is 598 s.

For `CCOC(=O)c1ccc(NC(=O)COc2cc(C)nc(N3CCCC3)n2)cc1`, which RP-LC retention time is on record?
The RP-LC retention time was 591 s.

For `CC1Oc2ccc(-c3csc(NC(=O)COc4ccc(Cl)cc4)n3)cc2NC1=O` (stereo not given), which RP-LC retention time is on record?
The RP-LC retention time was 966 s.

With `CCC(C)NC(=O)Cn1c2ccccc2c2ncn(Cc3nc(-c4ccccc4)no3)c(=O)c21` (stereo not given) as the compound, how does the RP-LC retention time read?
Its RP-LC retention time is 882 s.

With `COc1ccc(OC)c(NC(=O)N2CCC(N3CCN(Cc4ccc(C)cc4)C(=O)C3=O)CC2)c1` as the compound, how does the RP-LC retention time read?
Its RP-LC retention time is 758 s.

For `CC(C)(C)c1noc(-c2ccc(=O)n(Cc3cccc(F)c3)n2)n1`, which RP-LC retention time is on record?
The RP-LC retention time was 1050 s.

With `CCN1CCN(c2ncc3c(n2)CCN(Cc2cccc(Br)c2)C3)CC1` as the compound, how does the RP-LC retention time read?
The RP-LC retention time was 550 s.

For `CNC(=O)c1cn(-c2ccc(SCC(=O)Nc3ccc4c(c3)OCCO4)nn2)cn1`, which RP-LC retention time is on record?
The RP-LC retention time was 645 s.

Which RP-LC retention time does the source give for `CSc1cccc(NC(=O)C2CCN(c3nccc(C)n3)CC2)c1` here?
The RP-LC retention time was 700 s.

With `CN(C)CCNC(=O)c1ccc(-c2ccc(N3CCCCCC3)nc2)cc1` as the compound, how does the RP-LC retention time read?
Its RP-LC retention time is 560 s.

Which RP-LC retention time does the source give for `COc1ccc(CNC(=O)c2ccc3c(c2)CC(=O)N3C)cc1` here?
The RP-LC retention time was 696 s.

With `CC(=O)Nc1cc(C(=O)NCc2ccc(OC(C)C)cc2)c2ccc(C)nc2c1` as the compound, how does the RP-LC retention time read?
Its RP-LC retention time is 640 s.

Which RP-LC retention time does the source give for `Cc1noc(CNC(=O)COc2cccc3c2OC(C)(C)C3)n1` here?
The RP-LC retention time was 724 s.

Which RP-LC retention time does the source give for `Cc1nn2c(CNC(=O)c3cccnc3)c(-c3ccccc3)nc2s1` here?
Its RP-LC retention time is 655 s.

For `CCn1cc(-c2nc(C)c(C(=O)NCc3ccc(C)o3)s2)c2cccnc21`, which RP-LC retention time is on record?
The RP-LC retention time was 912 s.

With `COc1cc(NC(=O)N2CCc3c(c(C(=O)N4CCCC4)nn3C)C2)cc(OC)c1` as the compound, how does the RP-LC retention time read?
Its RP-LC retention time is 693 s.

For `CCc1nc(-c2csc(S(=O)(=O)N3CCC(C(=O)NCc4cccc(C)c4)CC3)c2)no1`, which RP-LC retention time is on record?
Its RP-LC retention time is 970 s.

For `Cn1c(N2CCN(C(=O)COc3ccc(Cl)cc3)CC2)cc(=O)n(C)c1=O`, which RP-LC retention time is on record?
Its RP-LC retention time is 666 s.

Which RP-LC retention time does the source give for `Cn1cnc(S(=O)(=O)N2CCC(C(=O)NC3CCCCCC3)CC2)c1` here?
The RP-LC retention time was 680 s.

Which RP-LC retention time does the source give for `O=S(=O)(c1ccc2c(c1)CCCC2)N1CCCC1c1nc(-c2ccc(Cl)cc2)no1` (stereo not given) here?
Its RP-LC retention time is 1370 s.

With `CCOC(=O)C1=C(C)NC2=C(C(=O)c3ccccc32)C1c1cccc(OC)c1` (stereo not given) as the compound, how does the RP-LC retention time read?
Its RP-LC retention time is 988 s.

For `Cc1ccc(S(=O)(=O)N2CCCC(Cn3c(C)nc4cccnc43)C2)c(C)c1` (stereo not given), which RP-LC retention time is on record?
The RP-LC retention time was 747 s.

Which RP-LC retention time does the source give for `CCNc1nc(-c2nnc(-c3cccc(C)c3)o2)nc2ccccc12` here?
The RP-LC retention time was 932 s.

For `CC1CCN(S(=O)(=O)c2ccc3c(ccc(=O)n3CC(=O)NC3CCCc4ccccc43)c2)CC1` (stereo not given), which RP-LC retention time is on record?
Its RP-LC retention time is 919 s.

Which RP-LC retention time does the source give for `COC(=O)c1ccc(-c2nc3cnccn3c2Nc2ccccc2C)cc1` here?
Its RP-LC retention time is 906 s.

With `Cn1c(=O)c(=O)n(C)c2cc(N3CCOCC3)c(NC(=O)C3CC3)cc21` as the compound, how does the RP-LC retention time read?
The RP-LC retention time was 623 s.

Which RP-LC retention time does the source give for `O=C(CN1CCN(Cc2ccc(F)cc2)C1=O)NCc1cccc(F)c1` here?
The RP-LC retention time was 790 s.

Which RP-LC retention time does the source give for `O=C1CCc2cc(S(=O)(=O)N3CCCC3C(=O)N3CCN(c4ccccc4)CC3)ccc2N1` (stereo not given) here?
The RP-LC retention time was 713 s.

For `Cc1cccc(CN2CCCn3nc(C(=O)NCCCOC(C)C)cc3C2=O)c1`, which RP-LC retention time is on record?
The RP-LC retention time was 842 s.

Which RP-LC retention time does the source give for `CCOC(=O)Nc1ccc2nc(N3CCCCCC3)sc2c1` here?
The RP-LC retention time was 798 s.

For `O=C(CCc1csc(NC(=O)c2ccc(F)cc2)n1)NCc1nc2ccccc2[nH]1`, which RP-LC retention time is on record?
The RP-LC retention time was 577 s.

With `O=C(Nc1ccc(N2CCOCC2)cc1)C1=Cc2cc(Cl)ccc2OC=C1` as the compound, how does the RP-LC retention time read?
The RP-LC retention time was 992 s.

Which RP-LC retention time does the source give for `CC(=O)N1C[C@@H]2CCCN3CCC[C@@H]([C@H]23)[C@H]1CCCC(=O)NCCCc1c(C)noc1C` here?
Its RP-LC retention time is 575 s.

For `CCS(=O)(=O)N1CC(=O)N(c2ccc(C(C)C)cc2)C(C)(C(=O)NCc2ccc(F)cc2)C1` (stereo not given), which RP-LC retention time is on record?
Its RP-LC retention time is 872 s.

With `CCCN1C(=O)c2c(C(=O)NCCC(C)C)ncn2CC1(C)C(=O)NCc1ccc(F)cc1` (stereo not given) as the compound, how does the RP-LC retention time read?
Its RP-LC retention time is 824 s.

Which RP-LC retention time does the source give for `O=C(NCCc1csc(C2CCCN(C(=O)C3CCCC3)C2)n1)C1CC1` (stereo not given) here?
Its RP-LC retention time is 696 s.

Which RP-LC retention time does the source give for `CC(C)Cn1c(=O)c2ccccc2n(Cc2nc(-c3cccc(Br)c3)no2)c1=O` here?
Its RP-LC retention time is 1290 s.

With `O=C(c1ccno1)N1CCC(c2nnc(-c3ccco3)s2)CC1` as the compound, how does the RP-LC retention time read?
The RP-LC retention time was 644 s.

Which RP-LC retention time does the source give for `CCn1ccc2sc(C)c(C(=O)O)c2c1=O` here?
Its RP-LC retention time is 702 s.

Which RP-LC retention time does the source give for `CCC(c1cccs1)N1C(=O)[C@H]2CN(S(=O)(=O)c3cc(C)ccc3C)C[C@H]2C1=O` (stereo not given in full) here?
The RP-LC retention time was 1090 s.

With `O=C(NCc1nc(-c2ccc(Cl)cc2)no1)NC1CCCCC1` as the compound, how does the RP-LC retention time read?
Its RP-LC retention time is 916 s.

With `CC(C(=O)NCCCN1CCCCCC1)n1ccc2cc(S(=O)(=O)N3CCCCCC3)ccc21` (stereo not given) as the compound, how does the RP-LC retention time read?
The RP-LC retention time was 604 s.

Which RP-LC retention time does the source give for `NNC(=O)c1nnsc1-c1csnn1` here?
The RP-LC retention time was 657 s.

With `O=C(NCCC1CCN(C(=O)Nc2cc(F)ccc2F)CC1)C1CCCC1` as the compound, how does the RP-LC retention time read?
The RP-LC retention time was 769 s.

With `Cc1ccsc1C(=O)N1CCC2(CC1)N=C(c1cccc(Br)c1)NO2` as the compound, how does the RP-LC retention time read?
Its RP-LC retention time is 922 s.

Which RP-LC retention time does the source give for `CC(=O)Nc1nsc(N2CCC(C(=O)N3CCN(c4ccc(F)cc4)CC3)CC2)n1` here?
The RP-LC retention time was 680 s.

With `Cc1ccc(NC(=O)Cn2c(C)cc(-c3nnc(C)o3)c2C)c(C)c1` as the compound, how does the RP-LC retention time read?
The RP-LC retention time was 802 s.

With `CCOC(=O)c1ccc(CNC(=O)N2CCC(c3nc4ccncc4n3C)C2)cc1` (stereo not given) as the compound, how does the RP-LC retention time read?
Its RP-LC retention time is 557 s.

For `Cc1sc(-c2nnc(C3CC3)o2)cc1NC(=O)c1ccnn1C`, which RP-LC retention time is on record?
The RP-LC retention time was 796 s.

With `COc1cc(-c2nc(-c3ccc4c(c3)oc(=O)n4C(C)C)no2)cc(OC)c1OC` as the compound, how does the RP-LC retention time read?
The RP-LC retention time was 1110 s.

For `Cc1cc(C)c2c(n1)sc1c(=O)n(CC(=O)Nc3ccc(F)c(F)c3)c(C)nc12`, which RP-LC retention time is on record?
The RP-LC retention time was 910 s.

With `C=CCn1c2ccccc2c2nnc(SCC(=O)Nc3nc(-c4ccccc4)cs3)nc21` as the compound, how does the RP-LC retention time read?
The RP-LC retention time was 1050 s.

For `CNC(=O)OCN1C(=O)C2CC=CCC2C1=O` (stereo not given), which RP-LC retention time is on record?
Its RP-LC retention time is 677 s.

With `Cc1ccc(NC(=O)Cn2nc3nc(N4CCCC(C)C4)ccn3c2=O)cc1C` (stereo not given) as the compound, how does the RP-LC retention time read?
Its RP-LC retention time is 826 s.

With `COc1cccc(Nc2c(-c3ccc(Br)cc3)nc3cnccn23)c1` as the compound, how does the RP-LC retention time read?
Its RP-LC retention time is 972 s.

For `CC(C)(C)c1cccc(Nc2nc3ccncc3n(Cc3ccccc3)c2=O)c1`, which RP-LC retention time is on record?
The RP-LC retention time was 963 s.

— the METLIN SMRT retention time set (Domingo-Almenara et al. 2019)
